Results reported in patent US20220404336A1, “COMPOSITIONS, METHODS AND USES FOR FREE FATTY ACID SCREENING OF CELLS AT SCALE” (priority 2019, published 2022).
“Also recorded” adds a separate entry of the source. Read-outs that look alike come from different tables or passages of the source.

Key:
[1] = test system: human pancreatic islet cells; experiment: Toxicity against human pancreatic islet cells (C-peptide positive cell count); assay type: cell-based
Method: (§1) Human pancreatic islets from a deceased donor (Islet Research Resource ID: SAMN15400953) were purchased from the Integrated Islet Distribution program, dissociated, and cultured as described previously ([…] and Wagner. Curr. Protocols in Chem. Biol. 6: 157-168). In brief, 384 well plates (Perkin Elmer, CellCarrier Ultra, #6057300) were coated in ECM 2-3 days before the start of the experiment. HTB-9 cells (ATTC, 5637) were seeded at 10K/well into the 384 well plates and grown to confluence. All culture media was aspirated and 50 ul/well of 20 mM NH4OH in PBS (Sigma) was added. The plates were incubated at 37 C for 6 minutes, after which the NH4OH was pipetted up and down 4-5 times before being aspirated. The wells were then filled with 50 ul/well PBS until seeding with human islets. Human islets were pelleted and dissociated with StemPro Accutase (Life Technologies, A11105-01) at 37 C for 20-25 minutes followed by pipetting to mix 5-7 times. The dissociated islets were resuspended in CMRL 1066 medium (CellGro, cat. no. 15-110-CV) supplemented with 10% FBS, 1× L-glutamine, and 1× penicillin/streptomycin, filtered through a nylon mesh to remove large cell aggregates, and seeded at 10K/well density in the coated 384w plate. These islets were maintained in full CMRL media at 37 C, 95% humidity, and 5% CO2 with media changes every third day. For testing of free fatty acids for toxicity against human pancreatic islet cells (FIG. 8), C2, C3, and C4 free fatty acids were incubated with human pancreatic islet cells at concentrations of 250 μM, 500 μM, and 1 mM for 120 hours with one media change at 72 hours. The islets were subsequently fixed with 3% paraformaldehyde for 20 minutes, permeabilized with 0.2% TritonX-100 for another 20 minutes, and blocked for 3 hours at RT in 2% BSA in PBS (SeraCare, AP-45100-80). The islets were stained with C-peptide antibody (Developmental studies hybridoma bank at University of Iowa) at 1:100 in 2% BSA/PBS overnight rocking at 4 C, washed with PBS three times followed by once with 1% BSA/PBS, and then incubated with 568 Goat anti-rat (Life technologies, A11077) at 1:1000 and Hoechst (Thermo Fisher Scientific) at 1:1000 for one hour at RT. These islets were then imaged with the Operetta CLS High Content Screening System (#HH16000000, Perkin Elmer). The number of C-peptide positive cells in each well was quantified using Harmony software (PerkinElmer) and used as a proxy for cell viability.

[2] = test system: ATF4 and CHOP; experiment: Western blot, induction of the UPR; assay type: cell-based, mouse; details: MIN6 cells, BSA negative control
Method: MIN6 cells were lysed (#9803, Cell Signaling Technology) in the presence of protease inhibitors (#05892791001, Roche) and phosphatase inhibitors (#04906837001, Roche). Protein concentrations were quantified with the Pierce BCA Protein Assay Kit (#23225, Thermo Fisher Scientific). NuPAGE LDS sample buffer (#NP0008, Thermo Fisher Scientific) was added to normalized protein lysates together with NuPAGE reducing agent (#NP0004, Thermo Scientific). Lysates were heated to 95° C. for 5 min prior to SDS-PAGE gel electrophoresis (NuPAGE MES SDS running buffer, Thermo Fisher Scientific, #NP0002). Proteins were transferred to a nitrocellulose membrane (#1704158, BioRad) with the Trans-Blot® Turbo™ Blotting System (#1704155, BioRad) according to the manufacturer's protocol. Membranes were blocked in 5% Nonfat Dry Milk (#9999S, Cell Signaling Technology) in PBS with 0.1% Tween® 20 (PBS-T). Primary antibodies were incubated at 4° C. overnight, secondary antibodies were incubated at room temperature for 1 h. Super Signal West Dura (#34076, Thermo Fisher Scientific) or Super Signal West Pico (#34087, Thermo Fisher Scientific) were used to visualize immunoreactive bands imaged by G:BOX Chemi XT4:BOX-CHEMI-XT4, Syngene). Primary Antibodies used in this study: CPT1A: (Abcam #ab128568), ATF4: (CST #11815), CHOP: (CST #2895).

[3] = test system: MIN6 cells; experiment: ER calcium levels (Fluo4, thapsigargin, FLIPR Tetra); assay type: cell-based, mouse; details: FFA treatment 24 h, relative to negative control (BSA)
Method: MIN6 cells were plated in 384 well plates (Aurora, Black 384 SQ Well 188 micron Film, #1022-10110) and treated with the FFA library for 24 h prior to readout. Cells were carefully washed three times with HBSS (with calcium, Thermo Fisher Scientific, #14025076) using an automated simultaneous pipettor (analytikjena CyBio® Well vario) and incubated with the fluorescent calcium indicator Fluo4 (2 μM, Life Technologies, #F14202) in DMEM without additions for 1 h at room temperature. Then, cells were washed again in HBSS (with calcium) and incubated for another 30 min at room temperature in DMEM without additions. Just before the readout, cells were washed in final calcium free assay buffer solution (140 mM NaCl, 5 mM Kcl, 10 mM HEPES, 2 mM MgCl2, 10 mM EGTA, 10 mM Glucose) and left with 25 ul assay volume per well. Assay plates were immediately transferred to the FLIPR Tetra® High-Throughput Cellular Screening System. The plate was recorded with a frequency of 1 Hz for 10 min. Baseline was recorded for 30 s before the automated liquid transfer system of the FLIPR added the SERCA inhibitor Thapsigargin (final concentration 10 μM) in calcium free assay buffer. The resulting passive efflux of calcium from the ER induced a transient cytosolic fluorescence signal and the peak amplitudes were used to indirectly quantify ER calcium levels (See Extended Data FIG. 3d). The resulting trajectories were corrected for a pipetting artifact and baseline normalized. Log 2 Fold changes were calculated according to plate location specific negative (BSA) controls. The exclusion of one outlier/FFA/plate (n=5) based on a 3 sigma cutoff was allowed. P-values were calculated with Student's t-test (two-sided) and corrected for multiple testing (Benjamin & Hochberg).

[4] = test system: MIN6 cells; assay type: cell-based
Method: For high throughput cell viability assay, cells were seeded in 384 well plates (Perkin Elmer, CellCarrier Ultra, #6057300) and treated for 24, 48 and 72 h with the FFA library. Just before readout, cell nuclei were stained with Hoechst (Thermo Fisher Scientific) for 1 h at 37° C. and imaged with the Opera Phenix High Content Screening System (#HH14000000, Perkin Elmer). Number of counted nuclei was determined with the image analysis software Harmony (PerkinElmer) and used as a proxy for cell viability. For low throughput validation experiments, cells were treated for 48 h with representative FFAs in CellCarrier-384 Ultra Microplates. Caspase 3/7 (Thermo Fisher Scientific, #C10423) activation and propidium iodide (Thermo Fisher Scientific, #P1304MP) staining were used to calculate the fraction of apoptotic cells and dead cells, respectively. Single cells were identified and counted after staining their nuclei with Hoechst. Fluorescence intensities were then measured and the threshold for Caspase 3/7 and propidium iodide positive staining was determined manually. Cell viability was calculated as the fraction of cells that were neither Caspase 3/7 nor propidium iodide positive.

[5] = Toxicity against human pancreatic islet cells (C-peptide positive cell count); assay type: cell-based; details: female, dissociated human pancreatic islet cells; human islet cells, 120 hours; relative to the C3 and tested C4 free fatty acids; read-out: decrease of human pancreatic cell viability
Method: as §1

[6] = test system: NF-κB p65/RELA; experiment: RELA nuclear translocation, immunofluorescence; assay type: cell-based, mouse; details: MIN6 cells, 18 hours, BSA negative control
Method: Cells grown on 384 well CellCarrier Ultra microplates (#6057308, PerkinElmer) were fixed 10 min in PBS containing 4% PFA (Electron Microscopy Sciences), permeabilized 15 min in 0.5% Triton X-100 (Sigma-Aldrich), blocked for 1 h in blocking reagent (100 mM Tris HCL pH8; 150 mM NaCL; 5 g/L Blocking Reagent (#11096176001, Roche)) and treated for 1.5 h with primary antibody diluted in blocking reagent (NF-κB p65/RELA, Rabbit monoclonal antibody, 1:200, (#8242, Cell Signaling Technology). Cells were washed three times in PBS and incubated for 0.5 h with fluorescent-labeled secondary antibody in blocking solution (1:500, Alexa Fluor 568 Goat anti-Rabbit IgG, (#A11036, Thermo Fisher Scientific)). Cytoplasmic actin filaments were stained with Phalloidin conjugated with Alexa 647 (1:40, #A22287, Thermo Fisher Scientific) and nuclei were counterstained with Hoechst (1:2000, #H3570, Thermo Fisher Scientific). Cells were washed three times in PBS and imaged using the Opera Phenix High Content Screening System, #HH14000000, Perkin Elmer). A minimum of nine fields was acquired per well using 20× water immersion objectives in a confocal mode. Image analysis was performed using the Harmony software (PerkinElmer). Cell nuclei were first identified using Hoechst staining and nuclear region was defined for each cell. Phalloidin staining was then used to detect and define the cytoplasmic region of the cell. RELA fluorescent intensity was measured separately in the nuclear and cytoplasmic regions and a threshold for a nuclear translocation was defined using negative (BSA) and positive (TNFα) controls. For each well the fraction of cells identified for RELA nuclear translocation was calculated.

[7] = MIN6 cells, representative FFAs, 48 h

SMILES: CCCCCCCC/C=C\CCCCCCCCCCCCC(=O)O [14Z-tricosenoic acid, 14(Z)-Tricosenoic acid]
- decrease of human pancreatic cell viability [1]: more than 50%

SMILES: CCCCCCCC/C=C\CCCCCCCCCCCCCC(=O)O [15Z-tetracosenoic acid, 15(Z)-Tetracosenoic acid]
- decrease of human pancreatic cell viability [1]: more than 50%

SMILES: CCCCC/C=C\C/C=C\C/C=C\C/C=C\CCCC(=O)O [AA, 5(Z),8(Z),11(Z),14(Z)-Eicosatetraenoic Acid]
- induction of the UPR (ATF4 and CHOP protein abundance) [2]: None
- ER Ca^2+ levels (peak amplitude after thapsigargin 10 μM) [3]: increased
- apoptosis (caspase activity) and cell death (propidium iodide positive nuclei); cell viability [4]: trended towards decreased viability

SMILES: CCCCCCCC/C=C\CCCCCCCCCCCC(=O)O [EA, 13(Z)-Docosenoic acid]
- cytotoxicity at 120 h [5]: > 50%
- human pancreatic cell viability ([1]; human islet cells, 250 μM, 500 μM, 1 mM, 120 hours, relative to C3 FFAs 9Z-octadecenoic acid, 6Z-octadecenoic acid and C4 FFA 10Z-nonadecenoic acid): decreased human pancreatic cell viability
- induction of the UPR (ATF4 and CHOP protein abundance) [2]: upregulation of ATF4 and CHOP protein abundance; also recorded: inducing ATF4 and CHOP
- ER Ca^2+ levels (peak amplitude after thapsigargin 10 μM) [3]: significant reduction of ER Ca^2+ levels
- apoptosis (caspase activity) and cell death (propidium iodide positive nuclei); cell viability [4, 7]: consistently induced apoptosis and cell death; also recorded: reduced cell viability
- nuclear translocation of RELA (p65) [6]: translocated to the nucleus; also recorded: Complete translocation of RELA from the cytosol to the nucleus

SMILES: CCCCC/C=C\C/C=C\C/C=C\CCCCC(=O)O [GLA, gamma-linoleic acid]
- induction of the UPR (ATF4 and CHOP protein abundance) [2]: None
- ER Ca^2+ levels (peak amplitude after thapsigargin 10 μM) [3]: increased
- apoptosis (caspase activity) and cell death (propidium iodide positive nuclei); cell viability [4, 7]: trended towards decreased viability

SMILES: CCCCCCCC/C=C\CCCCCCCC(=O)O [OA, 9(Z)-Octadecenoic acid]
- induction of the UPR (ATF4 and CHOP protein abundance) [2]: None
- ER Ca^2+ levels (peak amplitude after thapsigargin 10 μM) [3]: near-baseline
- apoptosis (caspase activity) and cell death (propidium iodide positive nuclei); cell viability [4]: not associated with changes in cell viability

SMILES: CCCCCCCCCCCCCCCC(=O)O [PA, Hexadecanoic acid]
- induction of the UPR (ATF4 and CHOP protein abundance) [2]: upregulation of ATF4 and CHOP protein abundance; also recorded: inducing ATF4 and CHOP
- ER Ca^2+ levels (peak amplitude after thapsigargin 10 μM) [3]: significant reduction of ER Ca^2+ levels
- nuclear translocation of RELA (p65) [6]: translocated to the nucleus

SMILES: CCCCCCCCCCC/C=C\CCCCC(=O)O [PSA, petroselenic acid]
- induction of the UPR (ATF4 and CHOP protein abundance) [2]: None
- ER Ca^2+ levels (peak amplitude after thapsigargin 10 μM) [3]: near-baseline
- apoptosis (caspase activity) and cell death (propidium iodide positive nuclei); cell viability [4, 7]: not associated with changes in cell viability
- nuclear translocation of RELA (p65) [6]: moderate RELA translocation to the nucleus
